Laboratory results taken from patent publication US5101072A, “Sulfonylhydrazines and their use as antineoplastic agents and as antitrypanosomal agents” (Yale University, priority 1989, dated 1992).

Assays:
[1] = test system: decarboxylated S-adenosylmethionine (DSAM) and S-adenosylmethionine (SAM); settings: cited from earlier work
[2] = test system: early-stage sleeping sickness; settings: man and animals; cited from earlier work
T. brucei = settings: cited from earlier work
Lethality in normal mice = format: in vivo
Method: A single intraperitoneal dose of 1.2 g/kg or six daily intraperitoneal doses of 200 mg/kg of MeSO2 N(CH2 CH2 Cl)N(SO2 Me)2 produced no lethality in normal mice. Thus, the relatively great efficacy of this compound against the L1210 and P-388 leukemias and its relative lack of toxicity makes it an agent of significant promise.

L1210 leukemia = test: Survival time of mice bearing the L1210 leukemia; format: in vivo
Method: The tumor-inhibitory properties of several compounds, e.g., 1,2-bis(methylsulfonyl)-1-methylhydrazine, 1-methyl-1,2,2-tris(methylsulfonyl)hydrazine, 1,2-bis(methylsulfonyl)-1,2-dimethylhydrazine and 1-(2-chloroethyl)-1,2,2-tris(methylsulfonyl)hydrazine were determined by measuring the effects of these agents on the survival time of mice bearing the L1210 leukemia as described by K. Shyam, L. A. Cosby, and A. C. Sartorelli, J. Med. Chem., 28, 525-527 (1985).
^a Administered once daily for 6 consecutive days, beginning 24 hours
after tumor transplantation with 5-10 animals being used per group.
^b Average change in body weight from onset to termination of therapy
(§1) ^c % T/C = average survival time of treated/control animals ×

P388 leukemia = test: % T/C and 60-day cures vs. P388 leukemia; format: in vivo, mice; settings: 60 mg/kg/day
Method: as §1
^d % T/C vs. P388 leukemia = 218 (80% 60day cures) at 60 mg/kg/day

T. rhodesiense = test: Oral trypanocidal activity (preliminary); format: in vivo, T. rhodesiense; mice; settings: aqueous solutions, preliminary results
From the text: Orally active trypanocidal agents are desirable since, in areas where trypanosomiasis is endemic, other routes of drug administration frequently present problems.

T. evansi = test: Activity against T. evansi
Method: (§2) A representative agent, 1,2-bis(methylsulfonyl)-1-methylhydrazine, was also tested against several other trypanosoma species.

T. equiperdum = test: Activity against T. equiperdum
Method: as §2

[3] = Hydrolysis / decomposition in aqueous solution; format: physicochemical
Method: In the case of 1,2,2-tris(methylsulfonyl)-1-methylhydrazine, this reaction occurs slowly. A 50 μM solution of this compound hydrolyzes at an initial rate of 1% per minute in phosphate buffered saline (pH 7.6) at 37° C.
Hydrolysis is expected to occur preferentially at N-2 to generate the 1,2-bis(sulfonyl)-1-methylhydrazine. The sulfonic acid and 1,2-bis(sulfonyl)-1-methylhydrazine that are generated are both ionized under these conditions. The release of protons can be used to follow the decomposition of these and related compounds. The release of protons can be assayed by following the decrease in absorbance at 560 nm of a weakly buffered (1 mM potassium phosphate) phenol red (21 mg/l) solution; initial pH 7.6 at 37° C. The assay can be calibrated using HCl standards.
(§3) The reaction of 1,2-bis(sulfonyl)-1-methylhydrazine with water at pH 7.4-7.6 at 37° C. can be followed by proton release and/or methanol generation. Methanol generation can be assayed using alcohol oxidase and measuring the resultant O2 consumption using a Gilson oxygraph. This assay can be calibrated using methanol standards. The reaction of 1,2-bis(sulfonyl)-1-methylhydrazine with water is relatively fast [a 50 μM solution of 1,2-bis(methylsulfonyl)-1-methylhydrazine decomposes at an initial rate of 12-15% per minute in phosphate buffered saline (pH 7.6) at 37° C.] compared to the hydroylsis of 1,2,2-tris(methylsulfonyl)-1-methylhydrazine. RSO2 N=NMe may also decompose by a free radical mechanism to a smaller extent and methylate by the generation of methyl radicals.

[4] = Methanol generation in vitro (spontaneous breakdown to generate reactive methyl groups); format: physicochemical; settings: aqueous buffered (pH 7.6) solution
Method: as §3
Methanol was produced by these agents in aqueous solutions free from strong competing nucleophiles. Formation of this alcohol was used as a measure of the rate of spontaneous breakdown of these compounds to generate reactive methyl groups. […] These findings provide strong evidence that methylation is essential for the observed biological activity of these compounds.

T. gambiense = test: Activity against T. gambiense
Method: as §2

trypanosomes = test: Loss of antitrypanosomal activity upon aging of aqueous buffered solutions; format: in vivo; settings: aqueous buffered (pH 7.6)
I. brucei brucei = test: Activity against brucei brucei
Method: as §2

[5] = test system: T. rhodesiense (Y Tat 1.1); test: Survival time of CD-1 mice infected with T. rhodesiense (trypanocidal activity); format: in vivo, T. rhodesiense (Y Tat 1.1); CD-1 mice; settings: single ip dose 0.2 mmol/kg in 0.05 ml of DMSO
Method: The trypanocidal properties of several methylating agents including MeSO2 N(Me)N(SO2 Me)2 and MeSO2 N(Me)N(Me)SO2 Me were determined by measuring their effects on the survival time of CD-1 mice infected with T. rhodesiense (Y Tat 1.1), a pleimorphic strain that produces a non-relapsing disease in mice. The level of parasites in the bloodstream and body fluids increases by approximately 10-fold per day and the animals die when the parasite burden exceeds 1 to 2×10^9 cells/ml. Infection with a single viable parasite will kill a mouse in approximately 9 to 10 days.
Mice were infected ip with approximately 10^6 trypanosomes/mouse in phosphate buffered saline containing glucose. This level of parasites produces death in 4 days post-infection. These mice were treated (ip) with a single dose of drug dissolved in the appropriate vehicle 3 days after infection, when the parasitemia was 1 to 3×10^8 cells/ml of blood and the mice, if untreated, would survive for only 24 additional hours. The number of days the mice survived beyond that of the untreated controls was used as a measure of trypanocidal activity. The level of parasitemia in treated mice was measured at regular intervals to distinguish between parasite-related and drug toxicity-related deaths. No toxic deaths were observed. Mice that survived for 30 days without detectable parasitemias were considered cured. The effects of a single dose of various methylating agents on the survival time of trypanosome-bearing mice are summarized in Table II.
^a Drug that was administered was dissolved in 0.5 ml of phosphate
buffered saline containing glucose.
^b Drug that was administered was dissolved in 0.05 ml of DMSO.

[6] = late-stage sleeping sickness; cited from earlier work
[7] = L1210, at optimum effective daily dose, once daily × 6 days

For `NCCC[C@](N)(C(=O)O)C(F)F` [DFMO, alpha-difluoromethylornithine], the “increase in decarboxylated S-adenosylmethionine (DSAM) and S-adenosylmethionine (SAM)” value [1] is given as 1000 fold, the “Efficacy against early-stage sleeping sickness” value [2] is given as “effective against early-stage sleeping sickness” and the “Induction of differentiation in T. brucei” value (T. brucei) is given as “induce differentiation in T. brucei”.

In the case of `CS(=O)(=O)N(CCCl)N(S(C)(=O)=O)S(C)(=O)=O` [MeSO2 N(CH2 CH2 Cl)N(SO2 Me)2, 1-(2-chloroethyl)-1,2,2-tris(methylsulfonyl)hydrazine], the “Lethality in normal mice” value (Lethality in normal mice; single intraperitoneal dose of 1.2 g/kg) is reported as “no lethality”, the “Lethality in normal mice” value (Lethality in normal mice; six daily intraperitoneal doses of 200 mg/kg) is reported as “no lethality” and the “60-day "cures" of the L1210 leukemia” value (L1210 leukemia; 40 and 60 mg/kg per day×6) is reported as 60-day "cures" of the L1210 leukemia. For the same molecule, the “60-day cures, %” value (L1210 leukemia; [7]) was 100%, the “AvΔ Wt, % (average change in body weight from onset to termination of therapy)” value (L1210 leukemia; mice bearing L1210, at optimum effective daily dose) was -7.2% and the “Activity against the L1210 leukemia (in words)” value (L1210 leukemia; mouse, in vivo) was “exceedingly active”. The “60-day cures vs. P388 leukemia” value (P388 leukemia) was 80% and the “% T/C vs. P388 leukemia” value (P388 leukemia) was 218%.

In the case of `CN(NS(C)(=O)=O)S(C)(=O)=O` [MeSO2 N(Me)NHSO2 Me, 1,2-bis(methylsulfonyl)-1-methylhydrazine], the “Trypanocidal activity on oral administration compared with Table II” value (T. rhodesiense) is reported as “comparable activity to that reported in Table II”, the “Activity against T. evansi” value (T. evansi) is reported as “Activity has been demonstrated” and the “Activity against T. equiperdum” value (T. equiperdum) is reported as “Activity has been demonstrated”. The “Initial rate of hydrolysis / decomposition” value ([3]; 50 μM solution, phosphate buffered saline (pH 7.6), 37° C.) was 12-15 % per minute, the “Decomposition in aqueous solutions” value ([3]; acidified solutions) was “can be inhibited by dosing in acidified solutions” and the “Time within which decomposition was complete (no further methanol generated)” value [4] was no more than 15 min. The “Activity against T. gambiense” value (T. gambiense) was “Activity has been demonstrated”, the “60-day cures, %” value (L1210 leukemia; [7]) was 0% and the “% T/C (average survival time of treated/control animals × 100)” value (L1210 leukemia; [7]) was 180%. For the same molecule, the “AvΔ Wt, % (average change in body weight from onset to termination of therapy)” value (L1210 leukemia; mouse, in vivo) was -10.7%, the “antitrypanosomal activity lost on aging” value (trypanosomes; after 0 minutes of aging) was 0% and the “antitrypanosomal activity lost on aging” value (trypanosomes; after 1 minute of aging) was 21%. The “antitrypanosomal activity lost on aging” value (trypanosomes; after 5 minutes of aging) was 73%, the “antitrypanosomal activity lost on aging” value (trypanosomes; after 15 minutes of aging) was 97% and the “Activity against I. brucei brucei” value (I. brucei brucei) was “Activity has been demonstrated”. For the same molecule, the “Mean Extension of Life” value [5] was 11.8 days.

For `Nc1nc(N)nc(Nc2ccc([As]3SCC(CO)S3)cc2)n1` (stereo not shown) [melarsoprol], the “patients die due to drug toxicity” value [6] is given as “up to 5%”.
